According to patent publication US10927146B2, “Peptidyl ketoamides as inhibitors of rhomboid proteases” (priority 2017, dated 2021):
Entries after “also recorded” stand apart in the source; their conditions may differ.

Experiments:
[1] = target: model rhomboid protease GlpG (Escherichia coli, UniProt P09391); assay: In vitro inhibition of rhomboid protease GlpG (IC50 and Ki, as described in Ticha et al., 2017); assay type: biochemical, E. coli; conditions: for Ki: read-out: Ki Range
From the text: The in vivo activity of the compounds against GlpG according to the invention is in the low nanomolar range (FIG. 1), which is up to three orders of magnitude better than any other currently used rhomboid inhibitors. The co-crystal structures of these compounds with rhomboid protease (FIG. 2) show their mode of binding into the active site of rhomboid. Without wishing to be bound by such a theory, it appears that the ketoamide warhead covalently bonds to the catalytic serine, and extensively hydrogen bonds throughout the active site. The tail at the ketoamide nitrogen interacts with the S2′ pocket of rhomboid, engaging in a number of van der Waals contacts.

[2] = tested on: Plasmodium falciparum rhomboid 4 (PfROM4); assay: PfROM4 cell culture assay: shedding of EBA175 in transfected HEK293ET cells; assay type: cell-based; conditions: HEK293ET cells transfected with PfROM4 and substrate EBA175; approximate, FIG. 3
From the text: (A) HEK293ET cells were transfected with plasmids encoding PfROM4 and its substrate EBA175, and the shedding of EBA175 by PfROM4 into the medium under various concentrations of Compound 16 was quantitated by near-infrared fluorescence detected Western blotting. (B) Dose-response analysis of PfROM4 inhibition by Compound 16.

model rhomboid protease GlpG, sequence (P09391 whole entry): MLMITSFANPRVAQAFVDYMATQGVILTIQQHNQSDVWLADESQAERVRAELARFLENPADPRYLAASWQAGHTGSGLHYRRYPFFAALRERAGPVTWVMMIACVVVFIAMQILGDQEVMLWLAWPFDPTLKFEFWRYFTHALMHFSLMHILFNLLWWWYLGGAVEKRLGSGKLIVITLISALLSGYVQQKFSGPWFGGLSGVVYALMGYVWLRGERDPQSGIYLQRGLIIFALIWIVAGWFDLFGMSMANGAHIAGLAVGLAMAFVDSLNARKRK

Row | Structure (SMILES) | Ki [1] [nM] | also measured
1 | CC(=O)C(=O)[C@@H](NC(=O)[C@H](CCCNC(=N)N)NC(=O)[C@H](Cc1cnc[nH]1)NN[C@@H](C)C(=O)C(=O)NCCc1ccccc1)C(C)C [Compound 12] |  | IC50 [1]: 550 nM
2 | CC(=O)C(=O)[C@H](CCCNC(=N)N)NC(=O)[C@@H](NC(=O)[C@H](CCCNC(=N)N)NC(=O)[C@H](Cc1cnc[nH]1)NN[C@@H](C)C(=O)C(=O)NCc1cc(C)ccc1C)C(C)C [Compound 10] | 10 to 100 | 
3 | CC(=O)C(=O)[C@H](CCCNC(=N)N)NC(=O)[C@@H](NC(=O)[C@H](CCCNC(=N)N)NC(=O)[C@H](Cc1cnc[nH]1)NN[C@@H](C)C(=O)C(=O)NCCc1ccccc1)C(C)C [Compound 9] | 10 to 100 | 
4 | CC(=O)C(=O)[C@H](CCCNC(=N)N)NC(=O)[C@@H](NC(=O)[C@H](CCCNC(=N)N)NC(=O)[C@H](Cc1cnc[nH]1)NN[C@@H](C)C(=O)C(=O)NCCCCc1ccccc1)C(C)C [Compound 11] | 10 to 100 | 
5 | CC(=O)C(=O)[C@H](CCCNC(=N)N)NC(=O)[C@@H](NC(=O)[C@H](Cc1c[nH]c2ccccc12)NC(=O)[C@H](Cc1cnc[nH]1)NN[C@@H](C)C(=O)C(=O)NCCCCc1ccccc1)C(C)C [Compound 16] |  | IC50 of PfROM4 inhibition [2]: micro- to submicromolar range; also recorded: micromolar to submicromolar concentrations
